This is an account of results in patent US8703224B2, “Method to improve water solubility of Rebaudioside D” (PepsiCo, Inc., priority 2009, dated 2014).

For data set [1] the following is noted: cited from earlier work.
A short description of data set [2]: Water solubility experiment, anhydrous versus non-anhydrous form, solubility versus temperature. As to conditions: after cooling to room temperature and sitting on a bench-top overnight. It counts as physicochemical.
Experimental: Equal starting amounts of both substances were placed in equal volumes of water in side-by-side beakers equipped with overhead stirrers and hot plates. As the temperature of the water solution increased and the starting amounts were dissolved, incremental quantities of additional respective sweetener were added.
A short description of data set [3]: Dissolution in water with heating, then cooling to room temperature (stable solution test). It counts as physicochemical.
Experimental: In at least certain exemplary embodiments, such supersaturated aqueous solution has a stable solution of Reb D at a concentration greater than 500 ppm, e.g., 1500 ppm or 3000 ppm. As used here and in the appended claims, a “stable solution” is defined as a solution prepared and stored according to the methods described here where the Reb D remains in solution for a period of time of at least 24 hours at room temperature without forming a precipitate.
Data set [4] is described as follows: Oven heating for two hours, mass loss and HPLC check for decomposition. It counts as physicochemical. To be noted: for Net Loss (weight %) / Net Loss: oven, two hours; for Net Loss: 50 g sample. As for the experimental part:
An experiment was performed on four samples (50 g each) of commercially available Reb D. The samples were each heated in an oven for two hours at one of four temperatures: 70°, 80°, 90° and 100° C. The samples were then immediately cooled and weighed to determine any loss in mass. Each sample, including the initial sample, was analyzed using gradient reversed-phase High Performance Liquid Chromatography (HPLC) with Evaporative Light Scattering Detection (ELSD) and Ultra-Violet (UV) detection methods to determine if any significant decomposition occurred.

A short description of data set [5]: Thermal Gravimetric Analysis (TGA). It counts as physicochemical. As to conditions: 2 mg sample, 10° C./min. As for the experimental part:
In a complementary experiment, commercially available Reb D was examined by Thermal Gravimetric Analysis (TGA). TGA is a type of test that may be performed to determine changes in weight as a function of temperature. The method may be used to determine loss of water, or any other volatiles in a compound as it is heated. A derivative weight loss curve can be used to determine at what temperature weight loss is most apparent. A 2 mg sample was placed into a sample boat on a microgram balance (accurate to +/−1 μg) and heated while monitoring the mass. The temperature was increased at 10° C./min while continuing to monitor the mass and graphing the result as a percentage of the original mass. The results from this analysis are shown in FIG. 2 and indicate mass loss beginning at about 50° C. and continuing to about 104° C. and then remaining stable until reaching approximately 260° C., whereupon a large loss of mass was recorded, which corresponds to the decomposition temperature.

The nature of data set [6]: Differential Scanning calorimetry (DSC). To be noted: 40°-300° C., heating at 10° C./min. For orientation: DSC measures the heat that a sample takes up or gives off during a temperature scan.
A short description of data set [7]: HPLC (ELSD/UV) analysis after heating at 100° C. for 120 hours. It counts as physicochemical. As to conditions: after heating 120 hours at 100° C. As for the experimental part: It was discovered that upon heating commercially available Reb D, believed to be a non-anhydrous form of Reb D (i.e., hydrate), compound in an oven to a temperature of 100° C. for 120 hours, a thermally stable anhydrous Reb D product was obtained. […] The top graph indicates ELSD detection, and the bottom graph indicates UV detection results taken at a wavelength of 210 nm.
Additional HPLC chromatogram analysis was performed using both an anhydrous sample of Reb D (i.e., after the sample had undergone the process of heating for 120 hours at 100° C.) and a sample that had undergone heating for 24 hours. […] A decomposition peak estimated to be in the range of 2% of the total mass was found in the analysis results from the anhydrous Reb D sample, but its structure was not determined.

With `C=C1C[C@@]23CC[C@H]4[C@@](C)(CCC[C@@]4(C)C(=O)O[C@@H]4O[C@H](CO)[C@@H](O)[C@H](O)[C@H]4O)[C@@H]2CC[C@]1(O[C@@H]1O[C@H](CO)[C@@H](O)[C@H](O[C@@H]2O[C@H](CO)[C@@H](O)[C@H](O)[C@H]2O)[C@H]1O[C@@H]1O[C@H](CO)[C@@H](O)[C@H](O)[C@H]1O)C3` [Reb A, Rebaudioside A], in data set [1] (room temperature), the “solubility in aqueous solution” value is “at least 3000 ppm”.

Regarding `C=C1C[C@@]23CC[C@H]4[C@@](C)(CCC[C@@]4(C)C(=O)O[C@@H]4O[C@H](CO)[C@@H](O)[C@H](O)[C@H]4O[C@@H]4O[C@H](CO)[C@@H](O)[C@H](O)[C@H]4O)[C@@H]2CC[C@]1(O[C@@H]1O[C@H](CO)[C@@H](O)[C@H](O[C@@H]2O[C@H](CO)[C@@H](O)[C@H](O)[C@H]2O)[C@H]1O[C@@H]1O[C@H](CO)[C@@H](O)[C@H](O)[C@H]1O)C3` [Reb D, Rebaudioside D], the “appearance of water solution” value in data set [2] (listed as Reb D hydrate) is listed as “full of precipitate”. In addition, in data set [3] (dissolved in water with heating and allowed to cool), the precipitation after cooling result was “precipitating out of solution within a number of hours”. The “decomposition by HPLC” value in data set [4] (after two hours at 70°, 80°, 90° and 100° C.) is given as “little to no decomposition”. The “Net Loss (weight %)” value in data set [4] (70° C.) is on record as 0.38 weight %; in data set [4] (80° C.) it was 0.48 weight %; in data set [4] (90° C.) it was 0.76 weight %; in data set [4] (100° C.), 1.36 weight %. Also, the “Net Loss” value in data set [4] (70° C.) stood at 0.19 g; in data set [4] (80° C.) it was 0.24 g; in data set [4] (90° C.) it was 0.38 g; in data set [4] (100° C.), 0.68 g. The “decomposition temperature (large loss of mass)” value in data set [5] is “approximately 260 °C”. The “behaviour of heated solution upon cooling” value (cooled to room temperature (e.g., 25° C.)) is on record as “precipitates back out of solution within a few hours”. Under “room temperature”, the “stable solubility in aqueous solution” value is listed as “no more than 450 ppm”. In addition, the “temperature of apparent decomposition (large endothermic event)” value in data set [6] is “about 260 °C”.

Consider `C=C1C[C@@]23CC[C@H]4[C@@](C)(CCC[C@@]4(C)C(=O)O[C@@H]4O[C@H](CO)[C@@H](O)[C@H](O)[C@H]4O)[C@@H]2CC[C@]1(O[C@@H]1O[C@H](CO)[C@@H](O)[C@H](O)[C@H]1O[C@@H]1O[C@H](CO)[C@@H](O)[C@H](O)[C@H]1O)C3` [Stevioside], for which the solubility in water entry in data set [1] (in words) is given as “only sparingly soluble in water”.

With `C=C1C[C@@]23CC[C@H]4[C@@](C)(CCC[C@@]4(C)C(=O)O[C@@H]4O[C@H](CO)[C@@H](O)[C@H](O)[C@H]4O[C@@H]4O[C@H](CO)[C@@H](O)[C@H](O)[C@H]4O)[C@@H]2CC[C@]1(O[C@@H]1O[C@H](CO)[C@@H](O)[C@H](O[C@@H]2O[C@H](CO)[C@@H](O)[C@H](O)[C@H]2O)[C@H]1O[C@@H]1O[C@H](CO)[C@@H](O)[C@H](O)[C@H]1O)C3` [anhydrous Reb D, Rebaudioside D], the “appearance of water solution” value in data set [2] is recorded as “stayed as a clear solution”. In addition, the “time at room temperature with no precipitating out of solution” value in data set [3] (3000 ppm solution after cooling) is on record as “at least 24 hours”. This molecule also came in with a solution concentration in data set [3] (dissolved in water with heating, cooled to room temperature) of 3000 ppm. The “decomposition by HPLC retention values” in data set [7] is reported as “no significant level of decomposition”. The “impurity at the 14.1 minute elution mark” value in data set [7] (FIG. 6) was “about 5 % of the total mass”. In addition, in data set [7] (FIG. 7), the decomposition peak was ~2 % of the total mass.
